Drawing on patent US11000511B2, “Chemical compounds as antibiotics” (priority 2017, dated 2021), this text covers inhibition and Ki for 10 compounds.

The target of experiment [1] is T1, LasB elastase activity in dialysed supernatant from P. aeruginosa strain PA01 (Pseudomonas aeruginosa, UniProt P14756).
T1 construct: uses as source of enzyme dialysed supernatant from P. aeruginosa; endogenous in cells; host or cells: P. aeruginosa strain PA01 culture supernatant, filtered and dialysed
Kind of experiment: Elastin Congo Red assay to determine % inhibition (Assay 2). To be noted: read-out: Elastin hydrolysis % inhibition @ 50/25 μM inhibitor concentration Assay 2. It counts as biochemical. As for the experimental part:
(§1) Experiments were therefore conducted (1) to measure the potency of inhibition of compounds of the invention against purified Pseudomonas aeruginosa LasB enzyme and also experiments were conducted (2) to measure the ability of compounds of the invention to inhibit LasB-catalysed elastin degradation. The first assay uses a commercial fluorescent synthetic peptide and purified LasB enzyme. The LasB hydrolysis kinetics are measured allowing the determination of the IC50 and Ki of the inhibitors; the second is a more physiological assay using dialysed Pseudomonas aeruginosa supernatant as source of enzyme, plus its natural substrate Elastin. It is an “end point assay” that determines the percentage of LasB inhibition by each compound for one particular time point and inhibitor concentration. Technical details are described below:
The Elastin assay uses as source of enzyme dialysed supernatant from P. aeruginosa and the elastin congo red as substrate. The natural LasB substrate, elastin, is complexed with the congo red dye (Elastin Congo Red, ECR). The elastolysis activity from the culture supernatant will degrade elastin and release the congo red dye into the supernatant. This red dye release can be measured with a spectrophotometer. Some compounds of Formula (I) were assessed using the method of Assay 1 (described below). Other compounds of Formula (I) were assessed using the alternative but equivalent method of Assay 2 (described below).
Method (Assay 2): To determine LasB elastase activity and assess compound inhibition, an overnight culture of P. aeruginosa strain PA01 is diluted in LB medium. After reaching an OD600 nm of 0.6, this culture is diluted and incubated for additional 18-24 h in a shaking incubator. Culture supernatants are recovered by centrifugation and filtrated through a […] filter. These supernatants are dialysed (filtration molecules <20 kDa) into a 50 mM Tris-HCl pH 7.4, 2.5 mM CaCl2 solution at 4° C. under agitation for 24 h. Supernatant dialysed is then mixed volume/volume with the ECR suspension (20 mg/mL of ECR in 100 mM Tris-HCl pH 7.4 buffer supplemented with 1 mM CaCl2) supplemented with TritonX 100 (final concentration of 0.01%) in presence of DMSO (positive control) and/or different concentrations of compound (routinely […]). As a negative control, the dialysed supernatant is replaced by Tris-HCl solution (50 mM Tris-HCl pH 7.4, 2.5 mM CaCl2). The mixed reaction is then incubated overnight in a 37° C. shaking incubator. The reaction supernatant is recovered by centrifugation and the release of congo-red is measured by its absorbance at 495 nm (OD495 nm).
Percentage inhibition is determined using the following equation: ((OD495 nm value of positive control−OD495 nm value of negative control)−(OD495 nm value of treated supernatant−OD495 nm value of negative control))/(OD495 nm value of positive control−OD495 nm value of negative control)×100.

For experiment [2], the target named is T2, purified LasB protein from P. aeruginosa (Pseudomonas aeruginosa, UniProt P14756).
T2 construct: purchased Merck or Charles River Laboratories
The experiment is described as follows: Fluorometric assay to determine Ki (Assay 2). It counts as biochemical. As to the method: as §1
This assay uses commercially available substrate (Abz-Ala-Gly-Leu-Ala-p-Nitro-Benzyl-Amide (Ex: 340 nm, Em: 415 nm) from Peptide International) and purified LasB protein from P. aeruginosa (provided by Merck or Charles River Laboratories). It is performed to determine LasB elastase activity and assess compound inhibition in 96-well plate format. Some compounds of Formula (I) were assessed using the method of Assay 1 (described below). Other compounds of Formula (I) were assessed using the alternative but equivalent method of Assay 2 (described below).
Method: 10 to 140 ng/ml purified LasB is incubated with 250 μM Abz-Ala-Gly-Leu-Ala-p-Nitro-Benzyl-Amide in 50 mM Tris-HCl pH 7.4, 2.5 mM CaCl2), 0.01% of Triton X100 at 37° C. LasB activity (corresponding to fluorescence emission induced by substrate hydrolysis) is measured over 30 min at 37° C. with a fluorescence plate reader such as the Perkin Elmer Envision or similar. Different range of inhibitor concentrations are routinely assessed depending of inhibitor potency from 0.006 to 200 μM (Assay 1; 2-fold dilutions series) or from 0.0016 to 200 μM (Assay 2; 2-fold dilutions series) in order to determine IC50.
The equation used to calculate the Ki from IC50 is: Ki=IC50/(1+([S]/Km)) where [S]=250 μM and Km=214 μM.

T1 sequence (P14756 198-498): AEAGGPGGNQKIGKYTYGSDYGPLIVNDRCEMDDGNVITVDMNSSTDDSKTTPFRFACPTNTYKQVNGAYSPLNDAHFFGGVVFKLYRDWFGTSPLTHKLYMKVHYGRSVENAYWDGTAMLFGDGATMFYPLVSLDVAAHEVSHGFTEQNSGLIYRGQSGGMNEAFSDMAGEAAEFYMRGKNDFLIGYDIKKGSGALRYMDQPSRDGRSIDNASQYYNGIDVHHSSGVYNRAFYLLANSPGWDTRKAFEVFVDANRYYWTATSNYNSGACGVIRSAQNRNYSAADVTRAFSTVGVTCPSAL
T2 sequence (P14756 198-498): as above

Regarding `O=C(O)CC1(C(=O)NCc2nc3ccc(OCCO)cc3s2)Cc2ccccc2C1` [Example 109, 2-[2-[[6-(2-hydroxyethoxy)-1,3-benzothiazol-2-yl]methylcarbamoyl]indan-2-yl]acetic acid], the inhibition at 50 µM in experiment [1] is > 60%. In addition, the Ki in experiment [2] was < 300 nM.

With `COc1cc2nc(CNC(=O)C3(CC(=O)O)Cc4ccccc4C3)sc2cc1OC` [Example 114, 2-[2-[(5,6-dimethoxy-1,3-benzothiazol-2-yl)methylcarbamoyl]indan-2-yl]acetic acid], in experiment [1], the inhibition at 50 µM is > 60%. Further, the Ki in experiment [2] is < 300 nM.

As for `O=C(O)CC1(C(=O)NCc2nc3cc4c(cc3s2)OCO4)Cc2ccccc2C1` [Example 115, 2-[2-([1,3]dioxolo[4,5-f][1,3]benzothiazol-6-ylmethylcarbamoyl)indan-2-yl]acetic acid], in experiment [1], the inhibition at 50 µM is > 60%. The inhibition constant (Ki) in experiment [2] is < 300 nM.

For `O=C(O)CC1(C(=O)NCc2nc3ccccc3s2)Cc2cc(F)c(F)cc2C1` [Example 120, 2-(2-((benzo[d]thiazol-2-ylmethyl)carbamoyl)-5,6-difluoro-2,3-dihydro-1H-inden-2-yl)acetic acid], the inhibition at 50 µM in experiment [1] was > 60%. Moreover, the Ki in experiment [2] was < 300 nM.

Turning to `COc1cc2sc(CNC(=O)C3(CC(=O)O)Cc4ccccc4C3)nc2cc1N1CC(N(C)C)C1` [Example 122, 2-(2-(((5-(3-(dimethylamino)azetidin-1-yl)-6-methoxybenzo[d]thiazol-2-yl)methyl)carbamoyl)-2,3-dihydro-1H-inden-2-yl)acetic acid], the inhibition at 50 µM in experiment [1] is > 60%. In addition, the inhibition constant (Ki) in experiment [2] is < 300 nM.

Regarding `COc1cc2sc(CNC(=O)C3(CC(=O)O)Cc4ccccc4C3)nc2cc1N1CC([N+](C)(C)C)C1` [Example 123, 2-(2-(((6-methoxy-5-(3-(trimethylammonio)azetidin-1-yl)benzo[d]thiazol-2-yl)methyl)carbamoyl)-2,3-dihydro-1H-inden-2-yl)acetate], the inhibition at 50 µM in experiment [1] is > 60%. The Ki in experiment [2] is < 300 nM.

For the compound `COc1cc2sc(CNC(=O)C3(CC(=O)O)Cc4cc(F)c(F)cc4C3)nc2cc1OCCCN(C)C` [Example 124, 2-(2-(((5-(3-(dimethylamino)propoxy)-6-methoxybenzo[d]thiazol-2-yl)methyl)carbamoyl)-5,6-difluoro-2,3-dihydro-1H-inden-2-yl)acetic acid], the inhibition at 50 µM in experiment [1] was > 60%. Further, the Ki in experiment [2] was < 300 nM.

For the compound `COc1cc2sc(CNC(=O)C3(CC(=O)O)Cc4cc(F)c(F)cc4C3)nc2cc1OCCC[N+](C)(C)C` [Example 125, 2-(5,6-difluoro-2-(((6-methoxy-5-(3-(trimethylammonio)propoxy)benzo[d]thiazol-2-yl)methyl)carbamoyl)-2,3-dihydro-1H-inden-2-yl)acetate], in experiment [1], the inhibition at 50 µM was > 60%. The Ki in experiment [2] was < 300 nM.

In the case of `COc1cc2sc(CNC(=O)C3(CC(=O)O)Cc4ccccc4C3)nc2cc1OCCN(C)C` [Example 126, 2-(2-(((5-(2-(dimethylamino)ethoxy)-6-methoxybenzo[d]thiazol-2-yl)methyl)carbamoyl)-2,3-dihydro-1H-inden-2-yl)acetic acid], the inhibition at 50 µM in experiment [1] was > 60%. The inhibitory constant (Ki) in experiment [2] was < 300 nM.

On to `O=C(O)CC1(C(=O)NCc2nc3ccc(OC(F)(F)F)cc3s2)Cc2ccccc2C1` [Example 128, 2-[2-[[6-(trifluoromethoxy)-1,3-benzothiazol-2-yl]methylcarbamoyl]indan-2-yl]acetic acid], for which the inhibition at 50 µM in experiment [1] was > 60%. Also, in experiment [2], the Ki is < 300 nM.
